From ChEMBL document CHEMBL4304778 (Eur J Med Chem, 2019)

Experiments:
PC-3 = assay: Antitumor activity against human PC3 cells by MTT assay; type: functional, cell-based
MCF7 = assay: Antitumor activity against human MCF7 cells by MTT assay; type: functional, cell-based
HepG2 [1] = assay: Antitumor activity against human HepG2 cells by MTT assay; type: functional, cell-based
PLC = assay: Cytotoxicity against human PLC cells; type: functional, cell-based
Hep 3B2 = assay: Induction of apoptosis in human Hep3B cells relative to control; type: functional
HepG2 [2] = assay: Induction of apoptosis in human HepG2 cells relative to control; type: functional
[3] = biological target: Signal transducer and activator of transcription 3 (Homo sapiens) (UniProt P40763); assay: Activation of STAT3 phosphorylation at Y705 residue in human Huh7 cells relative to control; type: cell-based
Chain of Signal transducer and activator of transcription 3 (Homo sapiens) (P40763 whole entry): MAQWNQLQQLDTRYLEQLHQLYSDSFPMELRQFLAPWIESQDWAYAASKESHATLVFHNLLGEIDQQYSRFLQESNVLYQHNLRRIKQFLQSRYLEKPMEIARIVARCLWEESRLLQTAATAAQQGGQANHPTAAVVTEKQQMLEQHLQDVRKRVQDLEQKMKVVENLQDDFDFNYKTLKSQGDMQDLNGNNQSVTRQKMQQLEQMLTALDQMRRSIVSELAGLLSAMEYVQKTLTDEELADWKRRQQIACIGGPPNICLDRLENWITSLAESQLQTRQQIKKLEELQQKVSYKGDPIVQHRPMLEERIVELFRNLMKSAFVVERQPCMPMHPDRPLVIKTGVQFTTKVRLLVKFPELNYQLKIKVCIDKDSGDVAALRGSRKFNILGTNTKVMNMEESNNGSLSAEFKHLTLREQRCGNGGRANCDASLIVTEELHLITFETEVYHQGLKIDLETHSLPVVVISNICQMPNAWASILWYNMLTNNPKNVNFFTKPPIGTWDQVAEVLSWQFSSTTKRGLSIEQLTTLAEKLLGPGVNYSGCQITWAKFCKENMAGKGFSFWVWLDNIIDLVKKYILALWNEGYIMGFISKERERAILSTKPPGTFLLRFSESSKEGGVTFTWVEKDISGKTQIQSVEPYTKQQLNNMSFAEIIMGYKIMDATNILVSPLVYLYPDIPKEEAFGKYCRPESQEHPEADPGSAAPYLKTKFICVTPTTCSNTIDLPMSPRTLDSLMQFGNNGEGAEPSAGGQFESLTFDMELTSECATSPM

[4] = Induction of apoptosis in human PLC5 cells relative to control; type: functional
HepG2 [5] = assay: Cytotoxicity against human HepG2 cells after 24 hrs by MTT assay; type: functional, cell-based; conditions: HepG2, 24 h
SMMC-7721 = assay: Cytotoxicity against human SMMC7721 cells after 24 hrs by MTT assay; type: functional, cell-based; conditions: SMMC-7721, 24 h
M21 = assay: Antiproliferative activity against human M21 cells bt MTT assay; type: functional, cell-based
[6] = biological target: Vascular endothelial growth factor receptor 1 (Homo sapiens, UniProt P17948); assay: Inhibition of VEGFR1 (unknown origin)
Chain of Vascular endothelial growth factor receptor 1 (P17948 whole entry): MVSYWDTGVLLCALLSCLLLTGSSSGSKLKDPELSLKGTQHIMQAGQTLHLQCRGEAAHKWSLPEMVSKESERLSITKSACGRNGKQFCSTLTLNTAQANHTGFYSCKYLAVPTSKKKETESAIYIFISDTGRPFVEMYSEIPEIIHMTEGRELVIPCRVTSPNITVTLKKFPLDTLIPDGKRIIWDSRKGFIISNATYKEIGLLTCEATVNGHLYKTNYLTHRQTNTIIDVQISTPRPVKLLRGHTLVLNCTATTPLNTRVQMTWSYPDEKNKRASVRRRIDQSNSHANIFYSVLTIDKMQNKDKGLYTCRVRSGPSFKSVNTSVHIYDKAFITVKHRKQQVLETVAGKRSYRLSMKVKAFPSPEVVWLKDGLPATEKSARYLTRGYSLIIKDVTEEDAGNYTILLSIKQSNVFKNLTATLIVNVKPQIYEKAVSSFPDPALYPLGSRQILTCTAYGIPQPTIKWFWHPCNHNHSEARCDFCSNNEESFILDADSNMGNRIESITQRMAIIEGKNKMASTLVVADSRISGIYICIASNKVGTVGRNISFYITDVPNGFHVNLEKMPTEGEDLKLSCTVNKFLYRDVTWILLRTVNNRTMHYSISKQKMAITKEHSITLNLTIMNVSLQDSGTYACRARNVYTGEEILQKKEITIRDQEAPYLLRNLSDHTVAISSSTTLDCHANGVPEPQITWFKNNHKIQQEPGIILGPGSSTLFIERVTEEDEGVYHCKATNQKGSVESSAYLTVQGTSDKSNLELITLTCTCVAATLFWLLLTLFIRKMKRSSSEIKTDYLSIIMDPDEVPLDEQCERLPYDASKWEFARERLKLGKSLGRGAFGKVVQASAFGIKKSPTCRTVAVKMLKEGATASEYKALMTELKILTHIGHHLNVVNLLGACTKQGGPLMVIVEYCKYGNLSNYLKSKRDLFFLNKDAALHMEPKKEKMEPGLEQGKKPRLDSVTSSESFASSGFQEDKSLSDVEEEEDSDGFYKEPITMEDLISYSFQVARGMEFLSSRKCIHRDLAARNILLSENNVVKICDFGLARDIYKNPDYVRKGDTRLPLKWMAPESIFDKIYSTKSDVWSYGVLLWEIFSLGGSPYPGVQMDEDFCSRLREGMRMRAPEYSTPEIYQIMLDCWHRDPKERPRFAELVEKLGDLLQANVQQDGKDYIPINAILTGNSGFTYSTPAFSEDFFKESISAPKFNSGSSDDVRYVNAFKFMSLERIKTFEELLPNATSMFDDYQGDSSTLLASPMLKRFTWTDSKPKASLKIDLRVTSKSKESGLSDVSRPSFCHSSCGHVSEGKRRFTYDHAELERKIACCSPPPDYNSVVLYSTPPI

[7] = biological target: Vascular endothelial growth factor receptor 3 (Homo sapiens, UniProt P35916); assay: Inhibition of VEGFR3 (unknown origin)
Chain of Vascular endothelial growth factor receptor 3 (P35916 whole entry): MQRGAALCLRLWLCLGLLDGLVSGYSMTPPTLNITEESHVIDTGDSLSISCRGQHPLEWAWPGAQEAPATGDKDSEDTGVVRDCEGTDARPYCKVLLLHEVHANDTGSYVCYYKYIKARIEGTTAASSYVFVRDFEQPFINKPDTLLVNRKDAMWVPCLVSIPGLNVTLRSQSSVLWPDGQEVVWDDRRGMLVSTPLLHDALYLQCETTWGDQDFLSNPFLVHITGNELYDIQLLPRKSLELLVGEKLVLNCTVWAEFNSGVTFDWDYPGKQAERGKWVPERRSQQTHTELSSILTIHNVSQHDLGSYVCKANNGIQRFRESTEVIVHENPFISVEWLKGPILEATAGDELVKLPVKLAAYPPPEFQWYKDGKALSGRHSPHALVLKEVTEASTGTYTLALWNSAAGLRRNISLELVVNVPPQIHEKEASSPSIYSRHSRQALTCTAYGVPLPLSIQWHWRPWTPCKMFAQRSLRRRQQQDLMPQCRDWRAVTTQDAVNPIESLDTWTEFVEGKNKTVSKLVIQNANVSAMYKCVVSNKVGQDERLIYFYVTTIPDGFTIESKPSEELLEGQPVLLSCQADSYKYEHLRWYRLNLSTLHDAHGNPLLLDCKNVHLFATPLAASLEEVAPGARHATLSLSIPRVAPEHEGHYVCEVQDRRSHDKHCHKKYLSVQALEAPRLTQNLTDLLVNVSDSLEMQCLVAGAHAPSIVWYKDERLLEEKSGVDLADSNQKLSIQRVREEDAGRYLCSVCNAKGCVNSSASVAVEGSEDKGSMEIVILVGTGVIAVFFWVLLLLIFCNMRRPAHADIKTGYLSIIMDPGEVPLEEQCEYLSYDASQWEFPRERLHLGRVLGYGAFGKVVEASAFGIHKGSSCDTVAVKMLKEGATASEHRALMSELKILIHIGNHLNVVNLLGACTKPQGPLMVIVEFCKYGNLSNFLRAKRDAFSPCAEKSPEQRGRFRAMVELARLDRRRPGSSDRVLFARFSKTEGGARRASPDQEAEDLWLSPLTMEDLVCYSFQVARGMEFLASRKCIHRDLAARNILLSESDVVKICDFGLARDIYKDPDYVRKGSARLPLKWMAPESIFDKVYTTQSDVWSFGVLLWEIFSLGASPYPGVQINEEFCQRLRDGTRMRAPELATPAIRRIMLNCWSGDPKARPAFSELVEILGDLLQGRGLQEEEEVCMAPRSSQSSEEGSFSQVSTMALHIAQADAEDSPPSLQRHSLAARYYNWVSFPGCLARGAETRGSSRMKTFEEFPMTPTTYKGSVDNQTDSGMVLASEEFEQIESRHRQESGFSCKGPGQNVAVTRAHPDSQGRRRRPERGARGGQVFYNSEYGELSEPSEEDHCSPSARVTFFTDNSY

| IC50 (PC-3) [µM] | IC50 (MCF7) [µM] | IC50 (HepG2 [1]) [µM] | Compound | further results |
| --- | --- | --- | --- | --- |
| 94.1 | > 100 | > 100 | O=C1CCC/C1=C\c1ccc(OC2CCCC2)cc1 |  |
|  |  |  | O=C(Nc1ccc(-n2ncc3cc(C(F)(F)F)ccc32)cc1)Nc1ccc(C(F)(F)F)cc1 | IC50 (PLC): 4.34 µM |
|  |  |  | Cc1ccc(NC(=O)C2(C(=O)Nc3ccc(C)c(Oc4ccc(C#N)cc4)c3)CC2)cc1Oc1ccc(C#N)cc1 | Activity (Hep 3B2): 2.5%; Activity (HepG2 [2]): 2%; Activity [3]: 80%; Activity [4]: 4.5% |
| 26.9 | 64.7 | 71.3 | O=C1CCCCC/C1=C\c1ccc(OC2CCCC2)cc1 |  |
| 71.1 | 49.4 | 55.4 | O=C1CCCC/C1=C\c1ccc(OC2CCCC2)cc1 |  |
|  |  |  | O=C(Nc1ccc(Cl)cc1)Nc1ccc(Oc2ncnc3cc(F)ccc23)cc1 | IC50 (HepG2 [5]): 8.08 µM; IC50 (SMMC-7721): 10.6 µM |
| 7.8 | 5.6 | 7.2 | Cc1ccc(C2=NN(c3ccccc3)C(c3ccc(OC4CCCC4)cc3)C2)cc1 (stereo unspecified) |  |
|  |  |  | O=C(Nc1ccc(-n2ncc3c(Br)cccc32)cc1)Nc1ccc(Cl)c(C(F)(F)F)c1 | IC50 (M21): 3.43 µM |
| 9.1 | 13.7 | 13 | CCN1CCC(=O)/C(=C/c2ccc(OC3CCCC3)cc2)C1 |  |
| 21.8 | 40.9 | 27.3 | CC(=O)/C=C/c1ccc(OC2CCCC2)cc1 |  |
|  |  |  | Cc1ccc(NC(=O)Nc2ccc(C)c(Oc3ccc(C#N)cc3)c2)cc1Oc1ccc(C#N)cc1 | Activity (Hep 3B2): 17.5%; Activity (HepG2 [2]): 22.5%; Activity [3]: 40%; Activity [4]: 17.5% |
|  |  |  | COc1cc2nccc(Oc3ccc(NC(=O)NC4CC4)c(Cl)c3)c2cc1C(N)=O [LENVATINIB] | IC50 [6]: 0.022 µM |
| 17.1 | 36.4 | 20 | Cc1ccc(C(=O)/C=C/c2ccc(OC3CCCC3)cc2)cc1 |  |
|  |  |  | COc1cc2nccc(Oc3ccc(NC(=O)C4(C(=O)Nc5ccc(F)cc5)CC4)cc3)c2cc1OC [CABOZANTINIB] | IC50 [7]: 0.006 µM |
| 13.3 | 7.5 | 8 | CCOC(=O)C1=C(C)OC(N)=C(C#N)C1c1ccc(OC2CCCC2)cc1 (stereo unspecified) |  |
| 10.5 | 18.1 | 15.9 | CN1CCC(=O)/C(=C/c2ccc(OC3CCCC3)cc2)C1 |  |
